We go through 1 molecule from BindingDB's records for patent US8592379 (Kyoto University, 2013).

Each structure is given as a SMILES string.

The target of the experiment is KiSS-1 receptor (Homo sapiens, UniProt Q969F8). In words: Binding Assay.
KiSS-1 receptor, sequence (Q969F8 whole entry): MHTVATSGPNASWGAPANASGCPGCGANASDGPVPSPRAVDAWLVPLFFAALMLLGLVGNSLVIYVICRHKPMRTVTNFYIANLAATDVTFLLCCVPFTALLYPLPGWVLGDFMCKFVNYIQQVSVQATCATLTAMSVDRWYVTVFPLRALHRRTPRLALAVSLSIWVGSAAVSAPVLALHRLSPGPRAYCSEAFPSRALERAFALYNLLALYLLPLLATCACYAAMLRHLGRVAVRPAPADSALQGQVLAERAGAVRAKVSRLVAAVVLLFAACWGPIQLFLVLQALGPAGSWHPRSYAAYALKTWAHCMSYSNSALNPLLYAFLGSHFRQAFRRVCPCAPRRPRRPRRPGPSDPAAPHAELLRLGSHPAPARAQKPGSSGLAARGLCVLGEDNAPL

What is called IC50 is the midpoint of a concentration-inhibition curve. A lower IC50 goes with inhibition by little substance. For `CNC[C@@H](O)CC(CC(C)C)C(C)=O` (stereo partly specified) [US8592379, 37], the 50% inhibitory concentration (IC50) was determined as 0.24 nM.
